Values quoted from earlier work as cited in US20060105063A1, “Synergic combination of compositions containing aloe vera isolates and their therapeutic application” (priority 2004, published 2006).

What was measured:
[1] = tested on: animals ingesting a diet composed of 20% Fucose

C[C@H](O)[C@@H](O)[C@@H](O)[C@H](O)C=O [Fucose]
Oral dose considered safe (healthy 150-pound adult): ≤ 34 grams | Rate of excretion, mainly in the urine (humans): approximately 17 micrograms per minute | Time to elimination from the bloodstream (oral, after maximum blood levels): eight to twelve | Microscopic examination of liver, kidney, pancreas and sternal bone marrow ([1]; Fucose-treated rats): no abnormalities | Oral toxicity ([1]; animals ingesting a diet composed of 20% Fucose): reduce nerve conduction velocity as well as collagen production
